Experimental data published in article PMC9067983, “Identification of highly selective type II kinase inhibitors with chiral peptidomimetic tails” (Journal of Enzyme Inhibition and Medicinal Chemistry, 2022).
Where a SMILES comes first, the peptide text is derived from it. [ ]: non-standard residue; d: D form. The star is where a group is joined. X1 = Cc1ccc(Nc2ncc3c(n2)N(C)C(=O)N(c2cc(C(=O)*)ccc2C)C3)cn1; Aib = CC(C)(N)C(=O)O

Legend:
Experiment in all cases: kinase selectivity profiling
Type in all cases: biochemical
Conditions in all cases: 10µM ATP, read-out: % inhibition (relative to DMSO)
Aurora A = molecular target: T1, Aurora A (Homo sapiens, UniProt O14965)
T1 construct: purchased Reaction Biology Corp
Method: (§1) Full panel kinase profiling and kinase IC50 measurement were performed by using Reaction Biology Corp. (San Diego, USA).

WEE1 = molecular target: T2, WEE1 (Homo sapiens, UniProt P30291)
T2 construct: purchased Reaction Biology Corp
Method: as §1

CAMK1g = molecular target: T3, CAMK1g (Homo sapiens, UniProt Q96NX5)
T3 construct: purchased Reaction Biology Corp
Method: as §1

MLK1/MAP3K9 = molecular target: T4, MLK1/MAP3K9 (Homo sapiens, UniProt P80192)
T4 construct: purchased Reaction Biology Corp
Method: as §1

CAMK1d = molecular target: T5, CAMK1d (Homo sapiens, UniProt Q8IU85)
T5 construct: purchased Reaction Biology Corp
Method: as §1

MEKK6 = molecular target: T6, MEKK6 (Homo sapiens, UniProt O95382)
T6 construct: purchased Reaction Biology Corp
Method: as §1

ALK6/BMPR1B = molecular target: T7, ALK6/BMPR1B (Homo sapiens, UniProt O00238)
T7 construct: purchased Reaction Biology Corp
Method: as §1

GRK4 = molecular target: T8, GRK4 (Homo sapiens, UniProt P32298)
T8 construct: purchased Reaction Biology Corp
Method: as §1

PKN3/PRK3 = molecular target: T9, PKN3/PRK3 (Homo sapiens, UniProt Q6P5Z2)
T9 construct: purchased Reaction Biology Corp
Method: as §1

SGK1 = molecular target: T10, SGK1 (Homo sapiens, UniProt O00141)
T10 construct: purchased Reaction Biology Corp
Method: as §1

CLK4 = molecular target: T11, CLK4 (Homo sapiens, UniProt Q9HAZ1)
T11 construct: purchased Reaction Biology Corp
Method: as §1

GRK6 = molecular target: T12, GRK6 (Homo sapiens, UniProt P43250)
T12 construct: purchased Reaction Biology Corp
Method: as §1

LIMK1 = molecular target: T13, LIMK1 (Homo sapiens, UniProt P53667)
T13 construct: purchased Reaction Biology Corp
Method: as §1

MEKK2 = molecular target: T14, MEKK2 (Homo sapiens, UniProt Q9Y2U5)
T14 construct: purchased Reaction Biology Corp
Method: as §1

EPHA1 = molecular target: T15, EPHA1 (Homo sapiens, UniProt P21709)
T15 construct: purchased Reaction Biology Corp
Method: as §1

ITK = molecular target: T16, ITK (Homo sapiens, UniProt Q08881)
T16 construct: purchased Reaction Biology Corp
Method: as §1

EPHA4 = molecular target: T17, EPHA4 (Homo sapiens, UniProt P54764)
T17 construct: purchased Reaction Biology Corp
Method: as §1

RIPK4 = molecular target: T18, RIPK4 (Homo sapiens, UniProt P57078)
T18 construct: purchased Reaction Biology Corp
Method: as §1

DAPK1 = molecular target: T19, DAPK1 (Homo sapiens, UniProt P53355)
T19 construct: purchased Reaction Biology Corp
Method: as §1

EPHA6 = molecular target: T20, EPHA6 (Homo sapiens, UniProt Q9UF33)
T20 construct: purchased Reaction Biology Corp
Method: as §1

MAPKAPK2 = molecular target: T21, MAPKAPK2 (Homo sapiens, UniProt P49137)
T21 construct: purchased Reaction Biology Corp
Method: as §1

MSK1/RPS6KA5 = molecular target: T22, MSK1/RPS6KA5 (Homo sapiens, UniProt O75582)
T22 construct: purchased Reaction Biology Corp
Method: as §1

MYO3b = molecular target: T23, MYO3b (Homo sapiens, UniProt Q8WXR4)
T23 construct: purchased Reaction Biology Corp
Method: as §1

CAMKK1 = molecular target: T24, CAMKK1 (Homo sapiens, UniProt Q8N5S9)
T24 construct: purchased Reaction Biology Corp
Method: as §1

FYN = molecular target: T25, FYN (Homo sapiens, UniProt P06241)
T25 construct: purchased Reaction Biology Corp
Method: as §1

TYK1/LTK = molecular target: T26, TYK1/LTK (Homo sapiens, UniProt P29376)
T26 construct: purchased Reaction Biology Corp
Method: as §1

DAPK2 = molecular target: T27, DAPK2 (Homo sapiens, UniProt Q9UIK4)
T27 construct: purchased Reaction Biology Corp
Method: as §1

EPHA7 = molecular target: T28, EPHA7 (Homo sapiens, UniProt Q15375)
T28 construct: purchased Reaction Biology Corp
Method: as §1

CAMK1b = molecular target: T29, CAMK1b (Homo sapiens, UniProt Q6P2M8)
T29 construct: purchased Reaction Biology Corp
Method: as §1

CDK2/cyclin O = molecular target: T30, CDK2/cyclin O (Homo sapiens, UniProt P24941)
T30 construct: purchased Reaction Biology Corp
Method: as §1

MEK5 = molecular target: T31, MEK5 (Homo sapiens, UniProt Q13163)
T31 construct: purchased Reaction Biology Corp
Method: as §1

JNK1 = molecular target: T32, JNK1 (Homo sapiens, UniProt P45983)
T32 construct: purchased Reaction Biology Corp
Method: as §1

ROCK2 = molecular target: T33, ROCK2 (Homo sapiens, UniProt O75116)
T33 construct: purchased Reaction Biology Corp
Method: as §1

CDK9/cyclin T1 = molecular target: T34, CDK9/cyclin T1 (Homo sapiens, UniProt P50750)
T34 construct: purchased Reaction Biology Corp
Method: as §1

STK25/YSK1 = molecular target: T35, STK25/YSK1 (Homo sapiens, UniProt O00506)
T35 construct: purchased Reaction Biology Corp
Method: as §1

CAMKK2 = molecular target: T36, CAMKK2 (Homo sapiens, UniProt Q96RR4)
T36 construct: purchased Reaction Biology Corp
Method: as §1

PDGFRb = molecular target: T37, PDGFRb (Homo sapiens, UniProt P09619)
T37 construct: purchased Reaction Biology Corp
Method: as §1

DYRK3 = molecular target: T38, DYRK3 (Homo sapiens, UniProt O43781)
T38 construct: purchased Reaction Biology Corp
Method: as §1

CDK2/cyclin E2 = molecular target: T39, CDK2/cyclin E2 (Homo sapiens, UniProt P24941)
T39 construct: purchased Reaction Biology Corp
Method: as §1

TBK1 = molecular target: T40, TBK1 (Homo sapiens, UniProt Q9UHD2)
T40 construct: purchased Reaction Biology Corp
Method: as §1

TAOK1 = molecular target: T41, TAOK1 (Homo sapiens, UniProt Q7L7X3)
T41 construct: purchased Reaction Biology Corp
Method: as §1

TIE2/TEK = molecular target: T42, TIE2/TEK (Homo sapiens, UniProt Q02763)
T42 construct: purchased Reaction Biology Corp
Method: as §1

FGFR4 = molecular target: T43, FGFR4 (Homo sapiens, UniProt P22455)
T43 construct: purchased Reaction Biology Corp
Method: as §1

T3 sequence (Q96NX5 whole entry): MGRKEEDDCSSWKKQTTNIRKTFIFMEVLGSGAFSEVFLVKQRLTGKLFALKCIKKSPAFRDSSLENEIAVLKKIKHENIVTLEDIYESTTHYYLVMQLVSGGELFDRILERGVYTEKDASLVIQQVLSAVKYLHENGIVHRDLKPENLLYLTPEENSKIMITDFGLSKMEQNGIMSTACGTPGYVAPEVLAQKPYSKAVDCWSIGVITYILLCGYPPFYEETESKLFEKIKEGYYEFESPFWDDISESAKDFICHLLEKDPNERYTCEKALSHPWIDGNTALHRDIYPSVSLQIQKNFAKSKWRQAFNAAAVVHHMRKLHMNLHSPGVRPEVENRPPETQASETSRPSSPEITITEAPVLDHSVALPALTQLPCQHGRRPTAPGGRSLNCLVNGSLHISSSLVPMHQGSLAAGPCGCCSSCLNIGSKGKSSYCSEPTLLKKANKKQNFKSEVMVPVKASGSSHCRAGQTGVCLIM
T18 sequence (P57078 whole entry): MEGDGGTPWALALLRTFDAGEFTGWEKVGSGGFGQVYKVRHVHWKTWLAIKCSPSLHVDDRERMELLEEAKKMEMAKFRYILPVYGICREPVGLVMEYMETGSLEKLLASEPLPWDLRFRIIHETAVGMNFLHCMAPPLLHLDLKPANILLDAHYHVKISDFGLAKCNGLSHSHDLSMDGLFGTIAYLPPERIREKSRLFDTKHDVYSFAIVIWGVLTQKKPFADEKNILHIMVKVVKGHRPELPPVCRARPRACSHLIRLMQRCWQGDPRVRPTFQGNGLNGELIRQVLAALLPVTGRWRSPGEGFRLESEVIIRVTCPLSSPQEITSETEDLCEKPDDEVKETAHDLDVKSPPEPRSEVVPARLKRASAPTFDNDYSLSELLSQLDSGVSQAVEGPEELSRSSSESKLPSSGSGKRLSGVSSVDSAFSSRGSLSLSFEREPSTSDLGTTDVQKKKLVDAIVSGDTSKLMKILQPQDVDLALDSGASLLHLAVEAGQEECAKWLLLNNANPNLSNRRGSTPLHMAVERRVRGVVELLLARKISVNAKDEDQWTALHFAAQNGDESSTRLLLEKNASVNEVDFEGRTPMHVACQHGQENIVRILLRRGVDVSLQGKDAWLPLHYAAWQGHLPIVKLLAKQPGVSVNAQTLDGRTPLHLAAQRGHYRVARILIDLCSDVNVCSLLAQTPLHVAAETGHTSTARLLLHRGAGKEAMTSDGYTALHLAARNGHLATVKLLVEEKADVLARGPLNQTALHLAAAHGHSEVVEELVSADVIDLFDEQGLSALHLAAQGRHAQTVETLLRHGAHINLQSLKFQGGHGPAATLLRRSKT
T20 sequence (Q9UF33 23-1036): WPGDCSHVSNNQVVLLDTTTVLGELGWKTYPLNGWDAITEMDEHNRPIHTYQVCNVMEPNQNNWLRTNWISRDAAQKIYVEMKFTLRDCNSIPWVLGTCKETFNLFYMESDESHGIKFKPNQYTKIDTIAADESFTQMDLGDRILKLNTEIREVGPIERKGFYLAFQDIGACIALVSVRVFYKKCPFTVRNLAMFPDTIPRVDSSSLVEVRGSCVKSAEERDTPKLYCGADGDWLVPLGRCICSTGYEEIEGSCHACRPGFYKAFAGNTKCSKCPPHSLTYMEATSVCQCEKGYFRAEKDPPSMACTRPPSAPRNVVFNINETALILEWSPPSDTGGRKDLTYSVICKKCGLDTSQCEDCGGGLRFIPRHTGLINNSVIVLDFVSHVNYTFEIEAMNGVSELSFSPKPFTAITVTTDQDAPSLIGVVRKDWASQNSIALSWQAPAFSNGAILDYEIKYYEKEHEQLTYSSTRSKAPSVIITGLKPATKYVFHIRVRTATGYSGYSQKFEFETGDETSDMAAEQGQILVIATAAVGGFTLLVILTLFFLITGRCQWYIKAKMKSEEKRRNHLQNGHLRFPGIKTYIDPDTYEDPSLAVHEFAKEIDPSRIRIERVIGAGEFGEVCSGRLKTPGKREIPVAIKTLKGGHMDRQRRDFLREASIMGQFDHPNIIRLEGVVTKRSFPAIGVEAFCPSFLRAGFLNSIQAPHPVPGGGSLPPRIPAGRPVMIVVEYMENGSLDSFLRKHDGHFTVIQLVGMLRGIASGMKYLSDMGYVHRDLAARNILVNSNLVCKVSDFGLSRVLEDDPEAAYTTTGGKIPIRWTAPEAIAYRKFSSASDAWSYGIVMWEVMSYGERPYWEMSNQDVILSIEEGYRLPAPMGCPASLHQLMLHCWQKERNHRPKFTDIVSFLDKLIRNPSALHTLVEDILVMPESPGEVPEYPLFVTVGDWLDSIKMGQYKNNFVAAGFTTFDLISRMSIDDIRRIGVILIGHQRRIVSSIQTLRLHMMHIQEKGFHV
T13 sequence (P53667 whole entry): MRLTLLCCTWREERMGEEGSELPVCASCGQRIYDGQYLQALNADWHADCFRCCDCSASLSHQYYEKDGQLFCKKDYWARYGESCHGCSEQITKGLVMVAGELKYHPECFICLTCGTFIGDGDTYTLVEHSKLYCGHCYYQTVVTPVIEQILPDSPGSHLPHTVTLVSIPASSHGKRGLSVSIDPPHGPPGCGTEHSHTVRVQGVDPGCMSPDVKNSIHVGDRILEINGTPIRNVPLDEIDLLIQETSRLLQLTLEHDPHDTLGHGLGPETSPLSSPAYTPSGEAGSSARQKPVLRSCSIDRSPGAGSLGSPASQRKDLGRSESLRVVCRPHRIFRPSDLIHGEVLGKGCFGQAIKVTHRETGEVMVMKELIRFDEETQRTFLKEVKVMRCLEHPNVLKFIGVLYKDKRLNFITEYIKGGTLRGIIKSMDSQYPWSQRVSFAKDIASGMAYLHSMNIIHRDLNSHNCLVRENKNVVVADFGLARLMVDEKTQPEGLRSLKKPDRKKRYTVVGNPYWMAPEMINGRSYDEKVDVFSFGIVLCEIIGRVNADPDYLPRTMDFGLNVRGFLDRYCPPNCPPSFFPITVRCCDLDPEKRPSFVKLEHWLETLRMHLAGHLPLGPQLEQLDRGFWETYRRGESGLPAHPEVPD
T32 sequence (P45983 whole entry): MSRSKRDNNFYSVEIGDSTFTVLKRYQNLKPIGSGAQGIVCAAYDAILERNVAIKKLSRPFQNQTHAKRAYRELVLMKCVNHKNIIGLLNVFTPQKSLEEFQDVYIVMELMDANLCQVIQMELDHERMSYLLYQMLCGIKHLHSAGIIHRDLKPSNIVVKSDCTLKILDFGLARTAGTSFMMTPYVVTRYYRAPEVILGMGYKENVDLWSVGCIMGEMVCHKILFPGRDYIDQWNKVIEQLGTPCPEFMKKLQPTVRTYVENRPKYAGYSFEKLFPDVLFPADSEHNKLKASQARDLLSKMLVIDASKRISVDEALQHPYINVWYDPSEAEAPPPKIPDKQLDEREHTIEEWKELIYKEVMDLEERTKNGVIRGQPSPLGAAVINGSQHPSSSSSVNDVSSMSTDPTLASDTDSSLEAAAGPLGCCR
T33 sequence (O75116 whole entry): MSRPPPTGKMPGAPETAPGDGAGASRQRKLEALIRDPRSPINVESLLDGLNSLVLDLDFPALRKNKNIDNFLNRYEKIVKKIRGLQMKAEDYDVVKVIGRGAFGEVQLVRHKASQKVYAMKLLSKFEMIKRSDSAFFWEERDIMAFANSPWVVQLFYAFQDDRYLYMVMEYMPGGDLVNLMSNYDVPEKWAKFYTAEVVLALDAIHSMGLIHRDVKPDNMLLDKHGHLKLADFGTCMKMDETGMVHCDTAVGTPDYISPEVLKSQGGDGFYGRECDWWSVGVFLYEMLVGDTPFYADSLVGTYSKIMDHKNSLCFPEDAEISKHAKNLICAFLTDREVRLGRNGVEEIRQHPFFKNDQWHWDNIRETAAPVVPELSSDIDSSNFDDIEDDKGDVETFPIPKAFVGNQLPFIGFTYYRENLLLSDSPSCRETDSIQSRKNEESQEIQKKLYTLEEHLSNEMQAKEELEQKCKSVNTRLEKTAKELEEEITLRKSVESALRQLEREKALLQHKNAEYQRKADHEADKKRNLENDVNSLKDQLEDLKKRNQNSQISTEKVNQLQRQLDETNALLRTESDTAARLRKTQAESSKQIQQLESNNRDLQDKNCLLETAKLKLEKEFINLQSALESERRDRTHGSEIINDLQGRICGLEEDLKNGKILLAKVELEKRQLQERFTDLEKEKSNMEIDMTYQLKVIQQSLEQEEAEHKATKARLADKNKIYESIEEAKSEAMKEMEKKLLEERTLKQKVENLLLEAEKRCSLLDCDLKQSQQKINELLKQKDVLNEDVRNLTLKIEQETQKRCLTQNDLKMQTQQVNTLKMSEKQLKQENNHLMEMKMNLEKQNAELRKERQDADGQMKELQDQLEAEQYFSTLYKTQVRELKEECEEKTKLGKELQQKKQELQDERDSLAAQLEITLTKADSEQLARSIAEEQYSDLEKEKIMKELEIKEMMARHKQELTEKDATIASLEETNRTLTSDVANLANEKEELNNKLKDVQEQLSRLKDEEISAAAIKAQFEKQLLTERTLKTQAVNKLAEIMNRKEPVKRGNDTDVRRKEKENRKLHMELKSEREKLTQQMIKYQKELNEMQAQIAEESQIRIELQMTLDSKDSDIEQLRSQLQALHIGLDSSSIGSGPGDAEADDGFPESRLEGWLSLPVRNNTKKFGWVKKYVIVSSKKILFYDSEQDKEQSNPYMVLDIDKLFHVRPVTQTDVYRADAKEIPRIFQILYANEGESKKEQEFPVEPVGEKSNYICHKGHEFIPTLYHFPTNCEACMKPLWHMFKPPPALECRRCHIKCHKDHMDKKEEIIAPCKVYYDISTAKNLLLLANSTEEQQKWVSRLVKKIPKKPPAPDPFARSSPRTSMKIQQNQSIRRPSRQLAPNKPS

Cc1ccc(Nc2ncc3c(n2)N(C)C(=O)N(c2cc(C(=O)N[C@H](C(=O)N4CCC[C@H]4C(=O)NC(C)(C)C(=O)N[C@@H](CC(C)C)C(=O)N(C)C)C(C)C)ccc2C)C3)cn1 [7a, (S)-N-(1-(((S)-1-(dimethylamino)-4-methyl-1-oxopentan-2-yl)amino)-2-methyl-1-oxopropan-2-yl)-1-((4-methyl-3-(1-methyl-7-((6-methylpyridin-3-yl)amino)-2-oxo-1,4-dihydropyrimido[4,5-d]pyrimidin-3(2H)-yl)benzoyl)-L-valyl)pyrrolidine-2-carboxamide] (X1-VP[Aib]L-NMe2)
inhibition at 1 µM (Aurora A): 0%
inhibition at 1 µM (WEE1): 0%
inhibition at 1 µM (CAMK1g): 7%
inhibition at 1 µM (MLK1/MAP3K9): 33%
inhibition at 1 µM (CAMK1d): 8%
inhibition at 1 µM (MEKK6): 0%
inhibition at 1 µM (ALK6/BMPR1B): 16%
inhibition at 1 µM (GRK4): 1%
inhibition at 1 µM (PKN3/PRK3): 8%
inhibition at 1 µM (SGK1): 0%
inhibition at 1 µM (CLK4): 0%
inhibition at 1 µM (GRK6): 4%
inhibition at 1 µM (LIMK1): 51%
inhibition at 1 µM (MEKK2): 0%
inhibition at 1 µM (EPHA1): 3%
inhibition at 1 µM (ITK): 7%
inhibition at 1 µM (EPHA4): 29%
inhibition at 1 µM (RIPK4): 15%
inhibition at 1 µM (DAPK1): 0%
inhibition at 1 µM (EPHA6): 5%
inhibition at 1 µM (MAPKAPK2): 4%
inhibition at 1 µM (MSK1/RPS6KA5): 0%
inhibition at 1 µM (MYO3b): 0%
inhibition at 1 µM (CAMKK1): 0%
inhibition at 1 µM (FYN): 21%
inhibition at 1 µM (TYK1/LTK): 0%
inhibition at 1 µM (DAPK2): 1%
inhibition at 1 µM (EPHA7): 2%
inhibition at 1 µM (CAMK1b): 15%
inhibition at 1 µM (CDK2/cyclin O): 0%
inhibition at 1 µM (MEK5): 50%
inhibition at 1 µM (JNK1): 0%
inhibition at 1 µM (ROCK2): 10%
inhibition at 1 µM (CDK9/cyclin T1): 0%
inhibition at 1 µM (STK25/YSK1): 3%
inhibition at 1 µM (CAMKK2): 10%
inhibition at 1 µM (PDGFRb): 48%
inhibition at 1 µM (DYRK3): 23%
inhibition at 1 µM (CDK2/cyclin E2): 0%
inhibition at 1 µM (TBK1): 0%
inhibition at 1 µM (TAOK1): 0%
inhibition at 1 µM (TIE2/TEK): 0%
inhibition at 1 µM (FGFR4): 5%
